From ChEMBL document CHEMBL5696442, “Discovery of type II inhibitors of TGFβ-activated kinase 1 (TAK1) and mitogen-activated protein kinase kinase kinase kinase 2 (MAP4K2)” (J Med Chem, 2015)
The source made the active and inactive calls. The rule behind the calls is not given here.

Assays:
[1] = target: Cyclin-dependent kinase 1 (Homo sapiens) (UniProt P06493); assay: Inhibition of CDC2 Lys1 labeling site in human Huh-7 cells at 1 uM by KiNativ Profiling analysis relative to control; type: cell-based
Chain of Cyclin-dependent kinase 1 (Homo sapiens) (P06493 whole entry, looked up, the tested form may be a part): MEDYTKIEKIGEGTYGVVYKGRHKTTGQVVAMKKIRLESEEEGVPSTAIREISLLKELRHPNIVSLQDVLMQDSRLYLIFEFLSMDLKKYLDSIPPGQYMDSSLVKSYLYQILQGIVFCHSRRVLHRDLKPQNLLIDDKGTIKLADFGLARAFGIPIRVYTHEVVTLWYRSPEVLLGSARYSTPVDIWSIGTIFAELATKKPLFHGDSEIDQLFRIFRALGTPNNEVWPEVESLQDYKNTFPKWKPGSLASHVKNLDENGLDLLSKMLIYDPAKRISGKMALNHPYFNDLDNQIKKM

[2] = target: Phosphatidylinositol 4-phosphate 3-kinase C2 domain-containing subunit beta (Homo sapiens) (UniProt O00750); assay: Inhibition of PIK3C2B ATP labeling site in human Huh-7 cell lysate at 1 uM by KiNativ Profiling analysis relative to control; type: subcellular
Chain of Phosphatidylinositol 4-phosphate 3-kinase C2 domain-containing subunit beta (Homo sapiens) (O00750 whole entry, the tested form may be a part): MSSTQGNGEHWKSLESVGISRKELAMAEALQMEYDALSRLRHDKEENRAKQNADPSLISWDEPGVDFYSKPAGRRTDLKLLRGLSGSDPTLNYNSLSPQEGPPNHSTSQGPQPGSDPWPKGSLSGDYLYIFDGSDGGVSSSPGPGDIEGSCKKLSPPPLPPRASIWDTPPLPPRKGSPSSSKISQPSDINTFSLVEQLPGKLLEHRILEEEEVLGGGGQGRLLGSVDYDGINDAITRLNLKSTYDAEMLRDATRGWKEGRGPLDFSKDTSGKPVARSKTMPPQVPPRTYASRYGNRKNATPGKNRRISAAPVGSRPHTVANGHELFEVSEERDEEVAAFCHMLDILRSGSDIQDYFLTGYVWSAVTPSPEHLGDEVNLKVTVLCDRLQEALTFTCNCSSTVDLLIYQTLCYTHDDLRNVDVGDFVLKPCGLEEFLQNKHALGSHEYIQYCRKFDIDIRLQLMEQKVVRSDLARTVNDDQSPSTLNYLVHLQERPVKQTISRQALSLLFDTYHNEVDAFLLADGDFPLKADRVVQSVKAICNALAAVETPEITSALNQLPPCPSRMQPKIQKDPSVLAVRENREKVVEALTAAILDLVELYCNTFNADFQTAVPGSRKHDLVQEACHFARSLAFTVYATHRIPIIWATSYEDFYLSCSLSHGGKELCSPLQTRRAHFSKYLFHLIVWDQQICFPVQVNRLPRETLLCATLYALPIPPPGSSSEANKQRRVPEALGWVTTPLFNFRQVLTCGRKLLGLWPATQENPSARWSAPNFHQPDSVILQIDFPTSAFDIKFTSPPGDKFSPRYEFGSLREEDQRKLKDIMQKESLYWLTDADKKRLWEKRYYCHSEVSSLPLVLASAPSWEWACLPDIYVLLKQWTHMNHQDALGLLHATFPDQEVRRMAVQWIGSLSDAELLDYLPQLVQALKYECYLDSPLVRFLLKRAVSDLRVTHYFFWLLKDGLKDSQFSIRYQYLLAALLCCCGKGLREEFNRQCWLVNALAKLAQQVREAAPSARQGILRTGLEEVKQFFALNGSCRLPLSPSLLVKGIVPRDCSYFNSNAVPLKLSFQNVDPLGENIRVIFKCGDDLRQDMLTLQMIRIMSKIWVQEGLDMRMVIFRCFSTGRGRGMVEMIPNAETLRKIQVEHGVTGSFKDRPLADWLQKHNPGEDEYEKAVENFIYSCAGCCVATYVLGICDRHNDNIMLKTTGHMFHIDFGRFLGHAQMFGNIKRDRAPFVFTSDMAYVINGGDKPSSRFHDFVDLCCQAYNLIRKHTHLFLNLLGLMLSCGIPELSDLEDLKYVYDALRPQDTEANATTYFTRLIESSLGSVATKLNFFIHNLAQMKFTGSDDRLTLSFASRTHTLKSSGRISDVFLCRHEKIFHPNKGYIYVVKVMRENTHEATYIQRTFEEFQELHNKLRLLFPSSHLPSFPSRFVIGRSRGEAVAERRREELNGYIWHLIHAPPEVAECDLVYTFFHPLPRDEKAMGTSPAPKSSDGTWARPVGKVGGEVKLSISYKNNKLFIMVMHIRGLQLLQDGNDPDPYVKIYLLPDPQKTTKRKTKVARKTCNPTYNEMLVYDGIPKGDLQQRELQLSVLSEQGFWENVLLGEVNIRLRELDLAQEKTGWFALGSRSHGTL

[3] = target: T1, Serine/threonine-protein kinase TBK1 (Homo sapiens) (UniProt Q9UHD2); assay: Inhibition of TBK1 Lys1 labeling site in human Huh-7 cells at 1 uM by KiNativ Profiling analysis relative to control; type: cell-based
T1 sequence (whole entry): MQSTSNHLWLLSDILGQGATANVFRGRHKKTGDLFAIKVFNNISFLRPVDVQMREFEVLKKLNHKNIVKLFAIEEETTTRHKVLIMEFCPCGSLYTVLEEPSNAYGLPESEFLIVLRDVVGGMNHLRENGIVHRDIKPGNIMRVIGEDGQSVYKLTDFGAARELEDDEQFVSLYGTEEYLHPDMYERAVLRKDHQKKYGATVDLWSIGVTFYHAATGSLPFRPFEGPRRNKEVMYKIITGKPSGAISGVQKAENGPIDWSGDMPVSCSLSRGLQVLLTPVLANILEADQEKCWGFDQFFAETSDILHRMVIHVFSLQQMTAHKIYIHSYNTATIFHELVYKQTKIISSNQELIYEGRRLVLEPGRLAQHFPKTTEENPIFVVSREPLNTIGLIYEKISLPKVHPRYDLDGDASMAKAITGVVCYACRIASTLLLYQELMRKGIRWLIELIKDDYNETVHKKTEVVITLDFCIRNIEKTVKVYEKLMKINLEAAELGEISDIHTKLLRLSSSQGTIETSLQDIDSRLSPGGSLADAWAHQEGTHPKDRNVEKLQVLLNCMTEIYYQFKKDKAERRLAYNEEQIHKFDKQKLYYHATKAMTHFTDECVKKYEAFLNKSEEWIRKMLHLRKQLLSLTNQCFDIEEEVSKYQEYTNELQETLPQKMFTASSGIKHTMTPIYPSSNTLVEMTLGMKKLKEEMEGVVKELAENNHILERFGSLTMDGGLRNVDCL

[4] = target: Serine/threonine-protein kinase N1 (Homo sapiens) (UniProt Q16512); assay: Inhibition of PKN1 (unknown origin) at 10 uM by Ambit Kinomescan binding assay
Chain of Serine/threonine-protein kinase N1 (Homo sapiens) (Q16512 2-942 limits assumed): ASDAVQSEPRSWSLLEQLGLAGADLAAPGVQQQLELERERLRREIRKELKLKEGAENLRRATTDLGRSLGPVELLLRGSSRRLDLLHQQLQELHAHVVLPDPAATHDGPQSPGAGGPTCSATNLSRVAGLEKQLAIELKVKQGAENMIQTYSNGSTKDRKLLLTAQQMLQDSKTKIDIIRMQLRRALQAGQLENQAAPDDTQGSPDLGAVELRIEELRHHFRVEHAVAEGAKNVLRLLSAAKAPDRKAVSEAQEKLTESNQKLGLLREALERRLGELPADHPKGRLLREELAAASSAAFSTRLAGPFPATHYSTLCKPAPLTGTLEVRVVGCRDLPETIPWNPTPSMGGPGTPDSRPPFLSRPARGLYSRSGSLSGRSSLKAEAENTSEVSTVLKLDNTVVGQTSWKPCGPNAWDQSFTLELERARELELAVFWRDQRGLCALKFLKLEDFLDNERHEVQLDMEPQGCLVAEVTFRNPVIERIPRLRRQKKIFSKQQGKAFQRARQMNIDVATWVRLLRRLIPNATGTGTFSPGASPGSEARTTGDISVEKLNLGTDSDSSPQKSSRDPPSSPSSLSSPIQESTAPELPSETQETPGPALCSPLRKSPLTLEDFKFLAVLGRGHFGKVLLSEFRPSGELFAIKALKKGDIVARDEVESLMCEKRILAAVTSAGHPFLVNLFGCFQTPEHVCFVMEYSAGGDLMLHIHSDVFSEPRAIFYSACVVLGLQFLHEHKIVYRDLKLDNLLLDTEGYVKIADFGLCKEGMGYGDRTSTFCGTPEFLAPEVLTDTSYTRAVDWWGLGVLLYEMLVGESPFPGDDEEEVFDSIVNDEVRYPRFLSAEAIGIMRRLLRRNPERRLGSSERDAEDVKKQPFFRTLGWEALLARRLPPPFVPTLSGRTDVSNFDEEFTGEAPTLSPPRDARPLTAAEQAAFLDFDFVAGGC

[5] = target: Ribosomal protein S6 kinase alpha-1 (Homo sapiens) (UniProt Q15418); assay: Inhibition of N-terminal RPS6KA1 kinase domain 1 (unknown origin) at 10 uM by Ambit Kinomescan binding assay
Chain of Ribosomal protein S6 kinase alpha-1 (Homo sapiens) (Q15418 whole entry, the tested form may be a part): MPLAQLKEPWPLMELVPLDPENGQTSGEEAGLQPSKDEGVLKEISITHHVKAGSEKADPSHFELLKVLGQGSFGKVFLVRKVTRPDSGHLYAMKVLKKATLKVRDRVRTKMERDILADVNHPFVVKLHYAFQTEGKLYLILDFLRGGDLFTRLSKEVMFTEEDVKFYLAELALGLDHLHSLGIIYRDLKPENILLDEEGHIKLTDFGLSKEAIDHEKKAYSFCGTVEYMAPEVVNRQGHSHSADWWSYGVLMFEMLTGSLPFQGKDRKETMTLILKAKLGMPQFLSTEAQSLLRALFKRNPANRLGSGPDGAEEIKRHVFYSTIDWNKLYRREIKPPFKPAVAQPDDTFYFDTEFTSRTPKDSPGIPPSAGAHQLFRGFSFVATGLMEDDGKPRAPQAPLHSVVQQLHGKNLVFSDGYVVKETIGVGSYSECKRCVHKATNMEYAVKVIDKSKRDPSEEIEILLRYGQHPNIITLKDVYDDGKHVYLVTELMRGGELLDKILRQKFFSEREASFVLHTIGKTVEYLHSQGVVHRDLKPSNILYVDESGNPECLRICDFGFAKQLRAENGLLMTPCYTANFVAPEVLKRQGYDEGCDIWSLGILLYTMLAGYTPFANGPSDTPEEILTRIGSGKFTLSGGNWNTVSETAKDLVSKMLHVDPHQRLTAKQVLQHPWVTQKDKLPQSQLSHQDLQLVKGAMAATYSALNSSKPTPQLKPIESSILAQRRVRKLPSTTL

[6] = target: Myosin-IIIa (Homo sapiens) (UniProt Q8NEV4); assay: Inhibition of MYO3A (unknown origin) at 10 uM by Ambit Kinomescan binding assay relative to control
[7] = target: Serine/threonine-protein kinase BRSK1 (Homo sapiens) (UniProt Q8TDC3); assay: Inhibition of BRSK1 (unknown origin) at 1 uM by Ambit Kinomescan binding assay relative to control; values are per cent of control
[8] = target: T2, Acylglycerol kinase, mitochondrial (Homo sapiens) (UniProt Q53H12); assay: Inhibition of AGK ATP labeling site in human A-375 cells at 5 uM by KiNativ Profiling analysis relative to control; type: cell-based
T2 sequence (whole entry): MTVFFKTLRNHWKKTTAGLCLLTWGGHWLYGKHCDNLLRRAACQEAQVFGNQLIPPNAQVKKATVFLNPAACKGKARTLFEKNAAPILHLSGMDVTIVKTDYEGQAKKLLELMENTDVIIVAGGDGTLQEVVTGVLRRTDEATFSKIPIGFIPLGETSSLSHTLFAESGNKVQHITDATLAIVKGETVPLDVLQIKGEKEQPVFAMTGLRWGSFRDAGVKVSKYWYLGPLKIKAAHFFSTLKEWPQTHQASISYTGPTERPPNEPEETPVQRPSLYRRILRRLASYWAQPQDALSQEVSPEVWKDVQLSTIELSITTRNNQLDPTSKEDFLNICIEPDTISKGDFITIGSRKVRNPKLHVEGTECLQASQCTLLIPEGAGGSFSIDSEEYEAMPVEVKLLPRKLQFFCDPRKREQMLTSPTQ

[9] = target: Discoidin domain-containing receptor 2 (Homo sapiens) (UniProt Q16832); assay: Inhibition of DDR2 (unknown origin) at 1 uM by Ambit Kinomescan binding assay relative to control; values are per cent of control
[10] = target: T3, NUAK family SNF1-like kinase 2 (Homo sapiens) (UniProt Q9H093); assay: Inhibition of NuaK2 Lys1 labeling site in human A-375 cells at 5 uM by KiNativ Profiling analysis relative to control; type: cell-based
T3 sequence (whole entry): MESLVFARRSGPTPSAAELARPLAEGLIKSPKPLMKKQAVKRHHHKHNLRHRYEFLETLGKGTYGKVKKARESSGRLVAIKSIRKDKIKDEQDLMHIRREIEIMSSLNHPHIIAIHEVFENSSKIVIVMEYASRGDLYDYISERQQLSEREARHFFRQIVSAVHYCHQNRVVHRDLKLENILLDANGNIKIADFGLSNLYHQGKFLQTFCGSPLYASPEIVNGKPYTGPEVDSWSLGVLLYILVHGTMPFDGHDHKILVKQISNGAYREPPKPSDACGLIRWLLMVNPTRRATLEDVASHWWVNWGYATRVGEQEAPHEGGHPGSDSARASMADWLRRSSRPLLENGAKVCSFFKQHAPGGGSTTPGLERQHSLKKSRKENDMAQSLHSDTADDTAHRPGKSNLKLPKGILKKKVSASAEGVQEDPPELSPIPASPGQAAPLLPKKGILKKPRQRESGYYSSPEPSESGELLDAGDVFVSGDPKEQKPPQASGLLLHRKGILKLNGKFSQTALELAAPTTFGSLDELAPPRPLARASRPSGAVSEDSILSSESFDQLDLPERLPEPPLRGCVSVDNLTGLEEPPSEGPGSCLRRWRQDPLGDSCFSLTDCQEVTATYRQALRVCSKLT

[11] = target: cGMP-dependent protein kinase 2 (Homo sapiens) (UniProt Q13237); assay: Inhibition of PRKG2 (unknown origin) at 1 uM by Ambit Kinomescan binding assay relative to control
Chain of cGMP-dependent protein kinase 2 (Homo sapiens) (Q13237 whole entry): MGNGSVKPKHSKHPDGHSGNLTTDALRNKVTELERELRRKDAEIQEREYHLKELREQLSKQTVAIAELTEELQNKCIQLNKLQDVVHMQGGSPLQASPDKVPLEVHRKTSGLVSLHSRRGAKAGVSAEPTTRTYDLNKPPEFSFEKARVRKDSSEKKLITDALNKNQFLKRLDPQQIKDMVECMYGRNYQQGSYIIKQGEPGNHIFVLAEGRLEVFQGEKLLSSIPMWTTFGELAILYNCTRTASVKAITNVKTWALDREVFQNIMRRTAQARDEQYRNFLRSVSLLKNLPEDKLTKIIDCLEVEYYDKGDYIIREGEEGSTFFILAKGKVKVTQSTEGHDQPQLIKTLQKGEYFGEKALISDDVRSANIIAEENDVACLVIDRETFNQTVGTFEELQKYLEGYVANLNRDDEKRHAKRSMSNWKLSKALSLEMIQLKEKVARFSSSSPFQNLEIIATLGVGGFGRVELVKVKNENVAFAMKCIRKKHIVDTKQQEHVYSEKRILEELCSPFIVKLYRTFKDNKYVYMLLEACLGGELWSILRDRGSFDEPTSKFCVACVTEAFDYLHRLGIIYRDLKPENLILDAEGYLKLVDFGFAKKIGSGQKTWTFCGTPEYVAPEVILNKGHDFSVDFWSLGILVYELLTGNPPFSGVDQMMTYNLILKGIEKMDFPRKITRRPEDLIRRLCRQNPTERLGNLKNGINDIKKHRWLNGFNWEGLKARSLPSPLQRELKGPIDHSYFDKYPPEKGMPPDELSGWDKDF

CNc1cc(Oc2cc(C(=O)Nc3cc(N4CCN(C)CC4)cc(C(F)(F)F)c3)ccc2C)ncn1
inhibition [1]: 8.9%
inhibition [2]: 9%
inhibition [3]: 30.9%

CCN1CCN(Cc2ccc(NC(=O)c3ccc(C)c(Oc4ccnc5[nH]ccc45)c3)cc2C(F)(F)F)CC1
inhibition [4]: inactive
inhibition [5]: inactive
inhibition [6]: 6.4%

CCN1CCN(Cc2ccc(NC(=O)c3ccc(C)c(/C=C/c4cnc5[nH]ccc5c4OC)c3)cc2C(F)(F)F)CC1
residual activity [7]: 83%
inhibition [8]: 9.9%
residual activity [9]: 0.2%
inhibition [10]: -6.1%
inhibition [11]: 82%
